Reference: patent publication US20210253718A1, “FRIZZLED5 PROTEIN-BINDING AGENTS” (Modmab Therapeutics Corporation, priority 2016, published 2021)

Key:
Format in all cases: cell-based, human
HPAF-II cells = assay: Crystal violet staining proliferation (clonogenic growth) assay; conditions: 100 nM LGK974
Description: Crystal Violet Staining Proliferation Assay: HPAFII Cas9 cells were transduced with lentivirus generated with the indicated pLCKO plasmid as described above. 24 hours after infection cells were treated with puromycin. After 48 hours of selection, cells were PBS washed extensively, dissociated and counted. 2000 cells per well were re-seeded in 24-well format in media without puromycin. 24 hours post seeding, indicated wells were treated with DMSO control or 100 nM LGK974 (Cayman Chemical #14072) (note that these wells were from the LacZ gRNA population). Medium was renewed every 3-4 days and cells were fixed, 10 days post plating, using 100% ice-cold methanol. After fixation cells were stained with 0.5% crystal violet, 25% methanol solution for 20 minutes at room temperature, after which staining solution was removed and plates were washed several times in dH2O.
To validate the screen results HPAF-II cells were first infected with lentivirus coding for various gRNAs, transduced cells were selected for 48 hours and plated in clonogenic growth assays. […] In contrast, the growth of PANC-1 and BxPC-3 cell lines, which are wild-type for RNF43, was not inhibited by gRNAs targeting FZD5, FZD7 or CTNNB1 (FIG. 4C and FIG. 5).

PaTu-8988S cells = assay: Cell viability assay (Alamar Blue) in PDAC cell lines, LGK974 comparator
MUC5AC = assay: RT-qPCR of differentiation induced gene MUC5AC; conditions: RNF43-mutant PDAC cells
Description: Reverse transcription and quantitative real-time PCR: After indicated treatments, cells were lysed in Tri-reagent (BioShop Canada #TSS120) and RNA extracted using the manufacturer's protocol. RNA concentration was quantified with Nanodrop1000 (Thermo Scientific) and 2 micrograms of RNA per sample was DNase I treated (ThermoFisher #AM2222). DNase treated RNA was used to make cDNA with High-Capacity cDNA Reverse Transcription Kit (ThermoFisher #4368813). Real-time PCR was performed using Power SYBR Green Master Mix on the 7900HT Fast Real-Time PCR system. Primer pairs are listed below. Analysis was done using the comparative cycle threshold (CT) method (Bookout et al., 2006) with all samples normalized to PPIB (cyclophilin B) expression. To validate the screen results HPAF-II cells were first infected with lentivirus coding for various gRNAs, transduced cells were selected for 48 hours and plated in clonogenic growth assays. […] In contrast, the growth of PANC-1 and BxPC-3 cell lines, which are wild-type for RNF43, was not inhibited by gRNAs targeting FZD5, FZD7 or CTNNB1 (FIG. 4C and FIG. 5).

ASPC-1 cells = assay: Cell viability assay (Alamar Blue) in PDAC cell lines, LGK974 comparator

SMILES: Cc1cc(-c2ncc(CC(=O)Nc3ccc(-c4cnccn4)cn3)cc2C)ccn1 [LGK974]
- growth in clonogenic growth assay (HPAF-II cells): robust growth inhibition
- growth (cell viability) (PaTu-8988S cells): inhibited the growth
- expression of the differentiation marker MUC5AC (MUC5AC): increased expression
- growth (cell viability) (ASPC-1 cells): inhibited the growth
